Results taken from patent US20100069340A1, “PHARMACEUTICAL COMPOSITIONS OF AN SRC KINASE INHIBITOR AND AN AROMATASE INHIBITOR” (Wyeth, priority 2008, published 2010).
Where two headings read alike, the source gives them in different places.

Legend:
Assay type in all cases: cell-based
ER = ER signaling in MCF-7 cells (ERE-tk-luciferase, ERα levels)
Method: Radis Procedure 2484, MCF-7 model was used for the measurement of in vitro estrogenic activity. MCF-7 cells were passaged twice a week in D-MEM/F-12 medium containing 10% (v/v) heat-inactivated fetal bovine serum, 1% (v/v) Penicillin-Streptomycin, and 2 mM glutaMax-1. The cells were plated with growth medium at 25,000/well into 96 well plates and incubated at 37° C. overnight.
The cells were infected for 2 hr at 37° C. with 50 μl/well of a 1:10 dilution of adenovirus 5-ERE-tk-luciferase in phenol red-free D-MEM/F-12 medium containing 10% (v/v) heat-inactived charcoal-stripped fetal bovine serum, 1% (v/v) Penicillin-Streptomycin, 2 mM glutaMax-1, 1 mM sodium pyruvate. The wells are then washed once with 150 μl of experimental medium. Finally, the cells are treated for 24 hr at 37° C. in replicates of 8 wells/treatment with 150 μl/well of vehicle (<0.1% v/v DMSO) or compound that is diluted >1000-fold into experimental medium. SKI-606 was tested in a dose response assay in the presence of 0.1 nM 17β-estradiol to stimulate ERE-luc.
After treatment, the cells are lysed on a shaker for 15 min with 25 μl/well of 1× cell culture lysis reagent (Promega Corporation). The cell lysates (20 μl) were transferred to a 96 well luminometer plate, and luciferase activity were measured in a MicroLumat LB 96 P luminometer (EG & G Berthold) using 100 μl/well of luciferase substrate (Promega Corporation). […]

SKBR3 (ER neg) = experiment: Cell proliferation assay (CellTiter Glo), SKBR3; settings: Homo sapiens
Method: (§1) Cell lines were obtained from ATCC. Estrogen was obtained from SIGMA, 4-hydroxytamoxifen was obtained from SIGMA, Bosutinib was used for these studies. Charcoal-stripped serum and phenol red-free medium was obtained from Invitrogen. CellTiter Glo was obtained from Promega.
(§2) Cell cultures. Proliferation assays with cells in complete fetal calf serum were performed with medium containing phenol red. For all assays examining estrogen-dependence, cells were cultured in phenol red-free medium; DMEM/F12 (MCF7), RPMI1640 (MDA-MB-361, T47D) MEM (BT20, MDA-MB-231) McCoys5A modified (SKBR3), Leibowitz' L15 medium supplemented with 10 ng/mL insulin (MDA-MB-435 and MDA-MB-468) with 10% fetal bovine serum supplemented with glutamine and gentamicin. For proliferation assays, trypsinized cells were subjected to three cycles of centrifugation and resuspension in phenol red-free medium supplemented with charcoal stripped medium (5% final), glutamine and Pen/Strep. Cells were plated on day 0, with or without estrogen (10 nM final concentration). On day 1, 4-hydroxytamoxifen and SKI-606 or DMSO were added as a serial dilution. Cells were incubated for 7 days, after which CellTiter Glo (Promega) was added as recommended by the manufacturer. After mixing and two hours incubation on the bench, plates were read on an Envision reader. […] The IC50 was calculated using a floating minima corresponding to the lowest luminescence value at 5 uM.
Cell proliferation assays were performed in two formats; a three day proliferation assay in fully supplemented medium with phenol red, and a 7 day proliferation assay in phenol red free medium supplemented with charcoal-stripped medium.
The complete medium data were obtained in 3-day assays, while stripped serum assays were extended for 7 days with one change of medium at day 5.

MDA-MB-231 (ER neg) = experiment: Cell proliferation assay (CellTiter Glo), MDA-MB-231; settings: Homo sapiens
Method: as §1
as §2, with “The 10 uM data point was dropped for these two lines since there was a clear plateau prior to the sharp drop in luminescence observed at 10 uM compound. The” for “The”
Cell proliferation assays were performed in two formats; a three day proliferation assay in fully supplemented medium with phenol red, and a 7 day proliferation assay in phenol red free medium supplemented with charcoal-stripped medium. […] ER positive T47D cells were slightly more sensitive to SKI-606 in the presence of estrogen. BT20 cells were equally sensitive to SKI-606 in stripped serum medium, regardless of whether estrogen was present. […]

BT474 = experiment: Cell proliferation assay (CellTiter Glo), BT474; settings: Homo sapiens, BT-474, 168 h, 7 Day assay, charcoal stripped serum, no phenol red
Method: as §1
Cell cultures. Proliferation assays with cells in complete fetal calf serum were performed with medium containing phenol red. For all assays examining estrogen-dependence, cells were cultured in phenol red-free medium; DMEM/F12 (MCF7), RPMI1640 (MDA-MB-361, T47D) MEM (BT20, MDA-MB-231) McCoys5A modified (SKBR3), Leibowitz' L15 medium supplemented with 10 ng/mL insulin (MDA-MB-435 and MDA-MB-468) with 10% fetal bovine serum supplemented with glutamine and gentamicin. For proliferation assays, trypsinized cells were subjected to three cycles of centrifugation and resuspension in phenol red-free medium supplemented with charcoal stripped medium (5% final), glutamine and Pen/Strep. Cells were plated on day 0, with or without estrogen (10 nM final concentration). On day 1, 4-hydroxytamoxifen and SKI-606 or DMSO were added as a serial dilution. Cells were incubated for 7 days, after which CellTiter Glo (Promega) was added as recommended by the manufacturer. After mixing and two hours incubation on the bench, plates were read on an Envision reader. […]

MDA-MB-468 (ER neg) = experiment: Cell proliferation assay, MDA-MB-468; settings: Homo sapiens, MDA-MB-468, 72 h; 3 Day assay, complete medium (10% FCS)
Method: as §1
Cell cultures. Proliferation assays with cells in complete fetal calf serum were performed with medium containing phenol red. For all assays examining estrogen-dependence, cells were cultured in phenol red-free medium; DMEM/F12 (MCF7), RPMI1640 (MDA-MB-361, T47D) MEM (BT20, MDA-MB-231) McCoys5A modified (SKBR3), Leibowitz' L15 medium supplemented with 10 ng/mL insulin (MDA-MB-435 and MDA-MB-468) with 10% fetal bovine serum supplemented with glutamine and gentamicin. For proliferation assays, trypsinized cells were subjected to three cycles of centrifugation and resuspension in phenol red-free medium supplemented with charcoal stripped medium (5% final), glutamine and Pen/Strep. Cells were plated on day 0, with or without estrogen (10 nM final concentration). On day 1, 4-hydroxytamoxifen and SKI-606 or DMSO were added as a serial dilution. […] After mixing and two hours incubation on the bench, plates were read on an Envision reader. […] The 10 uM data point was dropped for these two lines since there was a clear plateau prior to the sharp drop in luminescence observed at 10 uM compound. […]

For COc1cc(Nc2c(C#N)cnc3cc(OCCCN4CCN(C)CC4)c(OC)cc23)c(Cl)cc1Cl [bosutinib], the “genomic and non-genomic signaling by ER” value (ER) was “inhibits both genomic and non-genomic signaling by ER”, the IC50 (SKBR3 (ER neg); SK-BR-3, 72 h, 3 Day assay, complete medium (10% FCS), read-out: IC50 (uM) 10% FCS) was 1.5 µM and the IC50 (SKBR3 (ER neg); SK-BR-3, 168 h, 7 Day assay, charcoal stripped serum, no phenol red, 10 nM estrogen, read-out: IC50 (uM) E2) was 1.38 µM. For the same molecule, the IC50 (SKBR3 (ER neg); SK-BR-3, 168 h, 7 Day assay, charcoal stripped serum, no phenol red, without estrogen, read-out: IC50 (uM) no E2) was 1.43 µM, the IC50 (MDA-MB-231 (ER neg); MDA-MB-231, 72 h, 3 Day assay, complete medium (10% FCS), read-out: IC50 (uM) 10% FCS) was 4.3 µM and the IC50 (MDA-MB-231 (ER neg); MDA-MB-231, 168 h, 7 Day assay, charcoal stripped serum, no phenol red, 10 nM estrogen, read-out: IC50 (uM) E2) was 5.05 µM. For the same molecule, the IC50 (MDA-MB-231 (ER neg); MDA-MB-231, 168 h, 7 Day assay, charcoal stripped serum, no phenol red, without estrogen, read-out: IC50 (uM) no E2) was 5.1 µM, the IC50 (BT474; 10 nM estrogen, read-out: IC50 (uM) E2) was 2.32 µM and the IC50 (BT474; without estrogen, read-out: IC50 (uM) no E2) was 2.22 µM. The IC50 (MDA-MB-468 (ER neg)) was 5 µM.
